Experimental data published in paper PMC10689823, “Discovery of a Drug-like, Natural Product-Inspired DCAF11 Ligand Chemotype” (Nature Communications, 2023).

Target: BRD4S-TagBFP reporter (Homo sapiens, UniProt O60885)
Assay: FACS-based CRISPR/Cas9 BRD4 protein stability screen
Settings: Mageck_Gene level
Method: The virus containing supernatant was cleared of cellular debris by filtration through a 0.45-µm PES filter and used to transduce KBM7 BRD4-BFP reporter cells harboring a doxycycline inducible Cas9 allele at a multiplicity of infection (MOI) of 0.05 and 1,000-fold library representation. Library-transduced cells were selected with G418 (1 mg ml^−1, Gibco) for 14 days, expanded and Cas9 expression was induced with DOX (0.4 µg ml^−1, PanReac AppliChem).
Cells were washed with and stored in FACS buffer (PBS containing 5% FBS and 1 mM EDTA) at 4 °C overnight. The next day, cells were strained trough a 35 µm nylon mesh and sorted on a BD FACSAria™ Fusion (BD Biosciences) using a 85 µm nozzle. Aggregates, dead (ZombieNIR positive), Cas9-negative (GFP) and sgRNA library-negative (Thy1.1-APC) cells were excluded, and the remaining cells were sorted based on their BRD4-BFP and mCherry levels into BRD4^HIGH (10% of cells), BRD4^MID (30%) and BRD4^LOW (10%) fractions. For each sample, cells corresponding to at least 2,000-fold library representation were sorted per replicate.
Next-generation sequencing (NGS) libraries of sorted cell fractions were prepared as previously described[25]. In brief, genomic DNA was isolated by cell lysis (10 mM Tris-HCl, 150 mM NaCl, 10 mM EDTA, 0.1% SDS), proteinase K treatment (New England Biolabs) and DNAse-free RNAse digest (Thermo Fisher Scientific), followed by two rounds of phenol extraction and 2-propanol precipitation. Isolated genomic DNA was subjected to several freeze–thaw cycles before nested polymerase chain reaction (PCR) amplification of the sgRNA cassette.
Barcoded NGS libraries for each sorted population were generated using a two-step PCR protocol using AmpliTaq Gold (Invitrogen). The resulting PCR products were purified using Mag-Bind® TotalPure NGS beads (Omega Bio-tek) and amplified in a second PCR introducing the standard Illumina adapters. The final Illumina libraries were bead-purified, pooled and sequenced on a HiSeq 3500 platform (Illumina).
Screen analysis was performed as previously described[25]. Briefly, sequencing reads were quantified using the crispr-process-nf Nextflow workflow, available at https://github.com/ZuberLab/crispr-process-nf/tree/566f6d46bbcc2a3f49f51bbc96b9820f408ec4a3. For statistical analysis, we used the crispr-mageck-nf Nextflow workflow, available at https://github.com/ZuberLab/crispr-mageck-nf/tree/c75a90f670698bfa78bfd8be786d6e5d6d4fc455. To calculate gene-level enrichment, the sorted populations (BRD4^HIGH or BRD4^LOW) were compared to the BRD4^MID populations in MAGeCK (0.5.9)[46], using median normalized read counts.

High_lfc (Gene DCAF1): -0.04 | High_logP (Gene DCAF1): 0.22 | Low_lfc (Gene DCAF1): 0.71 | Low_logP (Gene DCAF1): 1.93 | High_lfc (Gene DCAF4): -0.33 | High_logP (Gene DCAF4): 0.01 | Low_lfc (Gene DCAF4): -0.08 | Low_logP (Gene DCAF4): 0.63 | High_lfc (Gene DCAF5): -0.12 | High_logP (Gene DCAF5): 0.13 | Low_lfc (Gene DCAF5): 0.4 | Low_logP (Gene DCAF5): 1.39 | High_lfc (Gene DCAF6): 0.1 | High_logP (Gene DCAF6): 0.11 | Low_lfc (Gene DCAF6): 0.51 | Low_logP (Gene DCAF6): 1.55 | High_lfc (Gene DCAF7): -0.09 | High_logP (Gene DCAF7): 0.04 | Low_lfc (Gene DCAF7): 0.11 | Low_logP (Gene DCAF7): 0.24 | High_lfc (Gene DCAF8): -0.19 | High_logP (Gene DCAF8): 0.14 | Low_lfc (Gene DCAF8): 0.08 | Low_logP (Gene DCAF8): 0.18 | High_lfc (Gene DCAF12): 0.07 | High_logP (Gene DCAF12): 0.29 | Low_lfc (Gene DCAF12): -0.16 | Low_logP (Gene DCAF12): 0.06 | High_lfc (Gene DCAF13): -0.33 | High_logP (Gene DCAF13): 0.07 | Low_lfc (Gene DCAF13): -0.3 | Low_logP (Gene DCAF13): 0.33 | High_lfc (Gene DCAF15): -0.01 | High_logP (Gene DCAF15): 0.12 | Low_lfc (Gene DCAF15): 0.32 | Low_logP (Gene DCAF15): 0.83 | High_lfc (Gene DCAF16): 0.71 | High_logP (Gene DCAF16): 2.61 | Low_lfc (Gene DCAF16): -0.66 | Low_logP (Gene DCAF16): 0.04 | High_lfc (Gene DCAF17): 0.07 | High_logP (Gene DCAF17): 0.17 | Low_lfc (Gene DCAF17): -0.16 | Low_logP (Gene DCAF17): 0.07 | High_lfc (Gene DCUN1D1): 0.27 | High_logP (Gene DCUN1D1): 1.62 | Low_lfc (Gene DCUN1D1): -0.11 | Low_logP (Gene DCUN1D1): 0.82 | High_lfc (Gene DCUN1D2): -0.24 | High_logP (Gene DCUN1D2): 0 | Low_lfc (Gene DCUN1D2): 0.46 | Low_logP (Gene DCUN1D2): 1.57 | High_lfc (Gene DCUN1D3): 0.07 | High_logP (Gene DCUN1D3): 0.22 | Low_lfc (Gene DCUN1D3): 0.29 | Low_logP (Gene DCUN1D3): 0.82 | High_lfc (Gene DCUN1D4): -0.09 | High_logP (Gene DCUN1D4): 0.04 | Low_lfc (Gene DCUN1D4): -0.2 | Low_logP (Gene DCUN1D4): 0.05 | High_lfc (Gene DCUN1D5): 0.69 | High_logP (Gene DCUN1D5): 2.79 | Low_lfc (Gene DCUN1D5): -0.49 | Low_logP (Gene DCUN1D5): 0 | High_lfc (Gene DDA1): 0.43 | High_logP (Gene DDA1): 1.02 | Low_lfc (Gene DDA1): -0.23 | Low_logP (Gene DDA1): 0.16 | High_lfc (Gene DDB1): 2.03 | Low_lfc (Gene DDB1): 0.4 | Low_logP (Gene DDB1): 0.83 | High_lfc (Gene DDB2): 0.02 | High_logP (Gene DDB2): 0.06 | Low_lfc (Gene DDB2): 0.07 | Low_logP (Gene DDB2): 0.53 | High_lfc (Gene DET1): -0.36 | High_logP (Gene DET1): 0.06 | Low_lfc (Gene DET1): -0.27 | Low_logP (Gene DET1): 0.06 | High_lfc (Gene DHX15): 0.66 | Low_lfc (Gene DHX15): 0.13 | Low_logP (Gene DHX15): 0.31 | High_lfc (Gene DTL): -0.25 | High_logP (Gene DTL): 0.1 | Low_lfc (Gene DTL): 0.46 | Low_logP (Gene DTL): 1.87 | High_lfc (Gene ECT2L): -0.03 | High_logP (Gene ECT2L): 0.31 | Low_lfc (Gene ECT2L): -0.31 | Low_logP (Gene ECT2L): 0.2 | High_lfc (Gene EED): 0.01 | High_logP (Gene EED): 0.06 | Low_lfc (Gene EED): -0.55 | Low_logP (Gene EED): 0.01 | High_lfc (Gene EIF4A1): -0.26 | High_logP (Gene EIF4A1): 0.15 | Low_lfc (Gene EIF4A1): -0.34 | Low_logP (Gene EIF4A1): 0.04 | High_lfc (Gene EIF4A3): -0.3 | High_logP (Gene EIF4A3): 0.1 | Low_lfc (Gene EIF4A3): 0.62 | Low_logP (Gene EIF4A3): 1.82 | High_lfc (Gene ELOA2): 0.02 | High_logP (Gene ELOA2): 0.19 | Low_lfc (Gene ELOA2): -0.02 | Low_logP (Gene ELOA2): 0.17 | High_lfc (Gene ELOA3): -0.12 | High_logP (Gene ELOA3): 0.33 | Low_lfc (Gene ELOA3): -0.41 | Low_logP (Gene ELOA3): 0.06 | High_lfc (Gene ELOA3D): -0.34 | High_logP (Gene ELOA3D): 0.11 | Low_lfc (Gene ELOA3D): -0.14 | Low_logP (Gene ELOA3D): 0.69 | High_lfc (Gene ELOA): -0.54 | High_logP (Gene ELOA): 0 | Low_lfc (Gene ELOA): 0.05 | Low_logP (Gene ELOA): 0.65 | High_lfc (Gene ELOB): -0.05 | High_logP (Gene ELOB): 0.33 | Low_lfc (Gene ELOB): 0.22 | Low_logP (Gene ELOB): 0.4 | High_lfc (Gene ELOC): -0.21 | High_logP (Gene ELOC): 0.17 | Low_lfc (Gene ELOC): 0.63 | Low_logP (Gene ELOC): 1.29 | High_lfc (Gene ENC1): -0.27 | High_logP (Gene ENC1): 0.19 | Low_lfc (Gene ENC1): -0.31 | Low_logP (Gene ENC1): 0.09 | High_lfc (Gene EPHA4): 0.01 | High_logP (Gene EPHA4): 0.19 | Low_lfc (Gene EPHA4): -0.17 | Low_logP (Gene EPHA4): 0.06 | High_lfc (Gene ERCC8): -0.19 | High_logP (Gene ERCC8): 0.27 | Low_lfc (Gene ERCC8): -0.63 | Low_logP (Gene ERCC8): 0.01 | High_lfc (Gene ESCO1): 0.1 | High_logP (Gene ESCO1): 0.14 | Low_lfc (Gene ESCO1): -0.14 | Low_logP (Gene ESCO1): 0.11 | High_lfc (Gene FAM9A): -0.28 | High_logP (Gene FAM9A): 0.03 | Low_lfc (Gene FAM9A): -0.03 | Low_logP (Gene FAM9A): 0.66 | High_lfc (Gene FBXL2): -0.01 | High_logP (Gene FBXL2): 0.32 | Low_lfc (Gene FBXL2): -0.67 | Low_logP (Gene FBXL2): 0.02 | High_lfc (Gene FBXL3): 0.05 | High_logP (Gene FBXL3): 0.1 | Low_lfc (Gene FBXL3): 0.28 | Low_logP (Gene FBXL3): 0.58 | High_lfc (Gene FBXL4): -0.08 | High_logP (Gene FBXL4): 0.06 | Low_lfc (Gene FBXL4): 0.06 | Low_logP (Gene FBXL4): 0.49 | High_lfc (Gene FBXL5): 0.03 | High_logP (Gene FBXL5): 0.04 | Low_lfc (Gene FBXL5): 0.05 | Low_logP (Gene FBXL5): 0.32 | High_lfc (Gene FBXL6): 0.08 | High_logP (Gene FBXL6): 0.54 | Low_lfc (Gene FBXL6): 0.07 | Low_logP (Gene FBXL6): 0.24 | High_lfc (Gene FBXL7): -0.35 | High_logP (Gene FBXL7): 0.03 | Low_lfc (Gene FBXL7): -0.35 | Low_logP (Gene FBXL7): 0.01 | High_lfc (Gene FBXL8): -0.11 | High_logP (Gene FBXL8): 0.39 | Low_lfc (Gene FBXL8): 0.2 | Low_logP (Gene FBXL8): 0.54 | High_lfc (Gene FBXL12): 0.01 | High_logP (Gene FBXL12): 0.22 | Low_lfc (Gene FBXL12): 0.06 | Low_logP (Gene FBXL12): 0.38 | High_lfc (Gene FBXL13): -0.18 | High_logP (Gene FBXL13): 0.02 | Low_lfc (Gene FBXL13): -0.03 | Low_logP (Gene FBXL13): 0.46 | High_lfc (Gene FBXL14): -0.12 | High_logP (Gene FBXL14): 0.22 | Low_lfc (Gene FBXL14): 0.15 | Low_logP (Gene FBXL14): 0.61 | High_lfc (Gene FBXL15): 0.41 | High_logP (Gene FBXL15): 0.56 | Low_lfc (Gene FBXL15): 0.18 | Low_logP (Gene FBXL15): 0.28 | High_lfc (Gene FBXL16): 0.12 | High_logP (Gene FBXL16): 0.12 | Low_lfc (Gene FBXL16): -0.11 | Low_logP (Gene FBXL16): 0.07 | High_lfc (Gene FBXL17): 0.03 | High_logP (Gene FBXL17): 0.74 | Low_lfc (Gene FBXL17): -0.02 | Low_logP (Gene FBXL17): 0.44 | High_lfc (Gene FBXL18): 0.28 | High_logP (Gene FBXL18): 1.09
Structure (SMILES): Cc1sc2c(c1C)C(c1ccc(Cl)cc1)=N[C@@H](CC(=O)NCCOCCOCCOCCOCCNC(=O)COc1c(Br)cc(/C=C3\C(=O)Nc4ccc(Br)cc43)cc1Br)c1nnc(C)n1-2 [Compound 9]
